Key:
in vivo [1] = details: Sprague-Dawley, rat, po, 10 mg/mg
Rattus norvegicus = organism: Rattus norvegicus; details: in vivo, po
in vivo [2] = details: Sprague-Dawley, rat, po, 10 mg/mg; remark: listed apart in the source
in vivo [3] = details: Sprague-Dawley, rat, iv, 1 mg/mg
in vivo [4] = details: Sprague-Dawley, rat, po, 10 mg/mg; remark: listed apart in the source
in vivo [5] = details: Sprague-Dawley, rat, po, 10 mg/mg; remark: listed apart in the source
in vivo [6] = details: Sprague-Dawley, rat, iv, 1 mg/mg; remark: listed apart in the source
in vivo [7] = details: Sprague-Dawley, rat, iv, 1 mg/mg; remark: listed apart in the source
in vivo [8] = details: Sprague-Dawley, rat, po, 10 mg/mg; remark: listed apart in the source
in vivo [9] = details: Sprague-Dawley, rat, po, 10 mg/mg; remark: listed apart in the source
in vivo [10] = details: Sprague-Dawley, rat, iv, 1 mg/mg; remark: listed apart in the source
in vivo [11] = details: Sprague-Dawley, rat, iv, 1 mg/mg; remark: listed apart in the source
in vivo [12] = details: Sprague-Dawley, rat, po, 10 mg/mg; remark: listed apart in the source
in vivo [13] = details: Sprague-Dawley, rat, iv, 1 mg/mg; remark: listed apart in the source
in vivo [14] = details: Sprague-Dawley, rat, po, 10 mg/mg; remark: listed apart in the source
in vivo [15] = details: Sprague-Dawley, rat, iv, 1 mg/mg; remark: listed apart in the source
in vivo [16] = details: Sprague-Dawley, rat, iv, 1 mg/mg; remark: listed apart in the source

In the case of `CC(C)(C)c1cc(NC(=O)Nc2ccc(-n3nc(-c4ccc(OCCN5CCOCC5)cc4)c4c(N)ncnc43)cc2)no1`, the AUC(0-t) (in vivo [1]) is reported as 978 ng·h/mL, the Vz (Rattus norvegicus) is reported as 0.06082 L/kg and the Tmax (in vivo [2]) is reported as 6.66 h. For the same molecule, the AUC(0-inf) (in vivo [3]) was 525 ng·h/mL, the CL/F (in vivo [4]) was 0.193 mL/min/kg and the AUC(0-inf) (in vivo [5]) was 991 ng·h/mL. The Tmax (in vivo [6]) was 1.02 min, the MRT inf (in vivo [7]) was 3.13 h and the half-life (in vivo [8]) was 3.61 h. The bioavailability (in vivo [9]) was 18.8%, the AUC(0-t) (in vivo [10]) was 520 ng·h/mL and the clearance (in vivo [11]) was 0.0345 mL/min/kg. For the same molecule, the Cmax (in vivo [12]) was 83.5 ng/mL, the half-life (in vivo [13]) was 3.34 h and the MRT inf (in vivo [14]) was 7.22 h. The Cmax (in vivo [15]) was 839 ng/mL.

With `CC(C)(C)c1cc(NC(=O)Nc2ccc(-c3cn4c(n3)sc3cc(OCCN5CCOCC5)ccc34)cc2)no1` [QUIZARTINIB] the AUC(0-t) (in vivo [1]) was 14500 ng·h/mL, the Vz (Rattus norvegicus) was 4.078 L/kg and the Tmax (in vivo [2]) was 8 h. It also gave an AUC(0-inf) (in vivo [3]) of 1970 ng·h/mL, a CL/F (in vivo [4]) of 12.6 mL/min/kg and an AUC(0-inf) (in vivo [5]) of 15000 ng·h/mL. For the same molecule, the Tmax (in vivo [6]) was 1.8 min, the MRT inf (in vivo [7]) was 5.83 h and the half-life (in vivo [8]) was 3.73 h. It also gave a Vd (in vivo [16]) of 3.53 L/kg, a bioavailability (in vivo [9]) of 75.9% and an AUC(0-t) (in vivo [10]) of 1930 ng·h/mL. It also gave a clearance (in vivo [11]) of 9.35 mL/min/kg, a Cmax (in vivo [12]) of 1140 ng/mL and a half-life (in vivo [13]) of 4.38 h. It also gave an MRT inf (in vivo [14]) of 10.1 h and a Cmax (in vivo [15]) of 728 ng/mL.

Reference: ChEMBL document CHEMBL4028866 (J Med Chem, 2017)
